Blank lines part the entries; values can stand above or below the compound they belong to. Numbered stars: 1 amine (or outer) side, 2 acyl side, 3 side chain; on linkers, the order of the positions; unused ones are H or OH. Square brackets hold non-standard residues; d marks the D form. Side chains are listed from the residue outwards. Peptide text beside a SMILES is read from it. 2Nal = N[C@@H](Cc1ccc2ccccc2c1)C(=O)O; Trx = NC[C@H]1CC[C@H](C(=O)O)CC1; PEG3 = NCCOCCOCCOCCC(=O)O; Dap = NC[C@H](N)C(=O)O; CO = O=C([*:1])[*:2]
Molecular target: Recombinant Human PSMA/FOLH1 Protein (Homo sapiens (Human), UniProt Q04609)
Sequence (Q04609 whole entry): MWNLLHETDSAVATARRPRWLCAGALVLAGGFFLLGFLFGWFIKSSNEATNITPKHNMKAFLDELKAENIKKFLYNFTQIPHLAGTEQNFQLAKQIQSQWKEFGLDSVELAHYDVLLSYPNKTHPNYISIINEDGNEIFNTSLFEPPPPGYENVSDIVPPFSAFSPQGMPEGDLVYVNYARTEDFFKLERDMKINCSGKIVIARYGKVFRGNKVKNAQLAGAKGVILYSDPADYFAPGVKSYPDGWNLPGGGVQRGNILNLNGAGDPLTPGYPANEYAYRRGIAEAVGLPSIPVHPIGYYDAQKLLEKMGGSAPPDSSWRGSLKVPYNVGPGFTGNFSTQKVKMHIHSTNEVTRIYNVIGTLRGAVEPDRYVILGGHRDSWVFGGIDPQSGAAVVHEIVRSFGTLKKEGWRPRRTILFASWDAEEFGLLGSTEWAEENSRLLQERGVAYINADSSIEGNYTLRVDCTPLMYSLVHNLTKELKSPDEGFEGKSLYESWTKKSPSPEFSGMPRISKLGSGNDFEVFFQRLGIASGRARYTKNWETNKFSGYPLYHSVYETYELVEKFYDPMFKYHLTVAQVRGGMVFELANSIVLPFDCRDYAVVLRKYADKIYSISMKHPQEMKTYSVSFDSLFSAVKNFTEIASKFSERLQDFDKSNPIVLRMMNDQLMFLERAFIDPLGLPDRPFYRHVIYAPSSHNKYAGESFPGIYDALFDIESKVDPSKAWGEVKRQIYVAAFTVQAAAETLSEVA
Test: Inhibition assay (Amplex Red glutamic acid/glutamate oxidase, NAAG substrate)
Assay type: biochemical
Settings: Target PSMA, average of N replicates; for IC50: PSMA 5 nM, NAAG 40 μM; for Ki: calculated based on Cheng-Prusoff equation
Experimental: Amplex™ Red Glutamic Acid/Glutamate Oxidase Assay Kit Catalog number: A12221 (Thermofisher); Recombinant Human PSMA/FOLH1 Protein, CF (rnd systems); N-Acetyl-Asp-Glu (NAAG) (Sigma Aldrich; 96 well half area plate; Enspire plate reader.
Prepare a working solution of 100 μM Amplex® Red reagent containing 0.25 U/mL HRP, 0.08 U/mL L-glutamate oxidase, 0.5 U/mL 1-glutamate-pyruvate transaminase, 200 μM L-alanine and keep protected from light. […] Final concentration is 5 nM. Transfer 10 μl/well of the inhibitor solution previously prepared in a separate 96 wells/plate.
Pipette 20 μl/well of the working solution prepared above. Incubate the reactions for 30 min at 37° C., protected from light. Because the assay is continuous (not terminated), fluorescence may be measured at multiple time points to follow the kinetics of the reactions. Measure the fluorescence in a fluorescence microplate reader using excitation in the range of 530-560 nm and emission detection at ˜590 nm. Ec50s were determined with GraphPad Prism. Ki is calculated based on Cheng-Prusoff equation.

Structure (SMILES): CC(=O)NCCOCCOCCOCCC(=O)NC[C@H]1CC[C@H](C(=O)N[C@@H](Cc2ccc(N=[N+]=[N-])cc2)C(=O)NCCCC[C@H](NC(=O)N[C@@H](CCC(=O)O)C(=O)O)C(=O)O)CC1 [Compound 15]
- IC50: 935 nM
- Ki: 6.68 nM

Structure (SMILES): CC(=O)NCCOCCOCCOCCC(=O)NC[C@H]1CC[C@H](C(=O)N[C@@H](Cc2ccc3ccccc3c2)C(=O)NCCCC[C@H](NC(=O)N[C@@H](Cc2cccc(C(=O)O)c2)C(=O)O)C(=O)O)CC1 [Compound 30]
- IC50: 602000 nM
- Ki: 4300 nM

Structure (SMILES): CC(=O)NCCOCCOCCOCCC(=O)NC[C@H]1CC[C@H](C(=O)N[C@H](Cc2ccc(O)cc2)C(=O)NCCCC[C@H](NC(=O)N[C@@H](CCC(=O)O)C(=O)O)C(=O)O)CC1 [Compound 43]
- IC50: 679 nM
- Ki: 4.86 nM

Structure (SMILES): CC(=O)NCCOCCOCCOCCC(=O)NC[C@H]1CC[C@H](C(=O)N[C@@H](Cc2ccc3ccccc3c2)C(=O)NCC(=O)N[C@@H](CNC(=O)N[C@@H](CCC(=O)O)C(=O)O)C(=O)O)CC1 [Compound 32] (Ac-[PEG3][Trx][2Nal]G[Dap]([CO-Glu])-OH)
- IC50: 434000 nM
- Ki: 3100 nM

Structure (SMILES): CC(=O)NCCOCCOCCOCCC(=O)NC[C@H]1CC[C@H](C(=O)N[C@@H](CCCCN)C(=O)NCCCC[C@H](NC(=O)N[C@@H](CCC(=O)O)C(=O)O)C(=O)O)CC1 [Compound 6]
- IC50: 58200 nM
- Ki: 416 nM

Structure (SMILES): CC(=O)NCCOCCOCCOCCC(=O)NC[C@H]1CC[C@H](C(=O)N[C@H](Cc2c[nH]cn2)C(=O)NCCCC[C@H](NC(=O)N[C@@H](CCC(=O)O)C(=O)O)C(=O)O)CC1 [Compound 42]
- IC50: 2240 nM
- Ki: 16 nM

Structure (SMILES): CC(=O)NCCOCCOCCOCCC(=O)NC[C@H]1CC[C@H](C(=O)N[C@H](CC(=O)NCCCC[C@H](NC(=O)N[C@@H](CCC(=O)O)C(=O)O)C(=O)O)Cc2ccccc2)CC1 [Compound 46]
- IC50: 446 nM
- Ki: 3.19 nM

Structure (SMILES): CC(=O)NCCOCCOCCOCCC(=O)NC[C@H]1CC[C@H](C(=O)N[C@@H](CC2CCCCC2)C(=O)NCCCC[C@H](NC(=O)N[C@@H](CCC(=O)O)C(=O)O)C(=O)O)CC1 [Compound 19]
- IC50: 2160 nM
- Ki: 15.4 nM

Structure (SMILES): CC(=O)NCCOCCOCCOCCC(=O)NC[C@H]1CC[C@H](C(=O)N[C@@H](Cc2ccc3ccccc3c2)C(=O)NCCCC[C@H](NC(=O)N[C@@H](Cc2ccc(C(=O)O)cc2)C(=O)O)C(=O)O)CC1 [Compound 31]
- IC50: 260000 nM
- Ki: 1860 nM

Structure (SMILES): CC(=O)NCCOCCOCCOCCC(=O)NC[C@H]1CC[C@H](C(=O)N[C@@H](Cc2ccc(F)cc2)C(=O)NCCCC[C@H](NC(=O)N[C@@H](CCC(=O)O)C(=O)O)C(=O)O)CC1 [Compound 13]
- IC50: 951 nM
- Ki: 6.8 nM

- IC50: 191000 nM
- Ki: 1370 nM
Structure (SMILES): CSCC[C@H](NC(=O)N[C@@H](CCCCNC(=O)[C@H](Cc1ccc2ccccc2c1)NC(=O)[C@H]1CC[C@H](CNC(=O)CCOCCOCCOCCNC(C)=O)CC1)C(=O)O)C(=O)O [Compound 27]

Structure (SMILES): CC(=O)NCCOCCOCCOCCC(=O)N[C@@H](CCCOc1cc(C#N)cc(C#N)c1)C(=O)NCCC(=O)N[C@@H](Cc1ccc2ccccc2c1)C(=O)NCCCC[C@H](NC(=O)N[C@@H](CCC(=O)O)C(=O)O)C(=O)O [Compound 53]
- IC50: 11.2 nM
- Ki: 0.0801 nM

Structure (SMILES): CC(=O)NCCOCCOCCOCCC(=O)NC[C@H]1CC[C@H](C(=O)N[C@@H](Cc2ccc3ccccc3c2)C(=O)NCCCC(=O)N[C@@H](CNC(=O)N[C@@H](CCC(=O)O)C(=O)O)C(=O)O)CC1 [Compound 33]
- IC50: 583000 nM
- Ki: 4170 nM

Structure (SMILES): CC(=O)NCCOCCOCCOCCC(=O)NC[C@H]1CC[C@H](C(=O)N[C@@H](CCCC(=O)O)C(=O)NCCCC[C@H](NC(=O)N[C@@H](CCC(=O)O)C(=O)O)C(=O)O)CC1 [Compound 20]
- IC50: 1490 nM
- Ki: 10.7 nM

Structure (SMILES): CC(=O)NCCOCCOCCOCCC(=O)N[C@@H](Cc1ccncc1)C(=O)NCC(=O)N[C@@H](Cc1ccc2ccccc2c1)C(=O)NCCCC[C@H](NC(=O)N[C@@H](CCC(=O)O)C(=O)O)C(=O)O [Compound 85]
- IC50: 10.6 nM
- Ki: 0.0759 nM

Structure (SMILES): CC(=O)NCCOCCOCCOCCC(=O)NC[C@H]1CC[C@H](C(=O)N[C@H](Cc2ccccc2)C(=O)NCCCC[C@H](NC(=O)N[C@@H](CCC(=O)O)C(=O)O)C(=O)O)CC1 [Compound 18]
- IC50: 540 nM
- Ki: 3.86 nM

Structure (SMILES): CC(=O)NCCOCCOCCOCCC(=O)NC[C@H]1CC[C@H](C(=O)N[C@@H](CC(C)C)C(=O)NCCCC[C@H](NC(=O)N[C@@H](CCC(=O)O)C(=O)O)C(=O)O)CC1 [Compound 1]
- IC50: 2390 nM
- Ki: 17.1 nM
